According to PubChem BioAssay AID2060907 (Molecular Pharmacology Branch, DTP, NCI, 2025):
“And” between values parts separate entries of the source, which are not always exact repeats. Equal entries are not always repeated.

System: 388556-164-R-J1-PDC complex spheroid viability
Assay: Anticancer human tumor 388556-164-R-J1-PDC patient-derived colon adenocarcinoma cell line growth inhibition [RAS]
Conditions: for viability, T/C: stronger effect = lower value
In short: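 Multi-cell-type spheroids: tumor cells plus HUVEC endothelial cells and mesenchymal stem cells. RAS-pathway inhibitors were combined with targeted agents, each dosed in half-log steps down from clinical Cmax, or from 10 microM when Cmax was unknown.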

[1] = curve of first compound, second compound 0.000949 µM
[2] = curve of first compound, second compound 0.003 µM
[3] = curve of first compound, second compound 0.00949 µM
[4] = curve of first compound, second compound 0.03 µM
[5] = curve of first compound, second compound 0.0949 µM
[6] = curve of first compound, second compound 0.3 µM
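Also: spheroids exposed to compound for 7 days before readout.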
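For viability, T/C in this document: 100% = DMSO vehicle control luminescence.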

CC1(C)CCC(Nc2ncc(C(F)(F)F)c(-c3c[nH]c4c(P(C)(C)=O)c(C#N)ccc34)n2)CN1 (stereo not given) + CCn1c(-c2cc(N3CCN(C)CC3)cnc2C(C)OC)c2c3cc(ccc31)-c1csc(n1)CC(NC(=O)C1CC1C)C(=O)N1CCCC(N1)C(=O)OCC(C)(C)C2 gave an IC50 [1] greater than 300 nM, an IC50 [2] greater than 300 nM and an IC50 [3] greater than 300 nM. For the same compound, the IC50 [4] was greater than 300 nM, the IC50 [5] was 3.41 nM and the IC50 [6] was less than 0.949 nM. The viability, T/C (second compound 0.000949 µM, first compound 0.000949 µM) was 104%, the viability, T/C (second compound 0.000949 µM, first compound 0.003 µM) was 87.9% and the viability, T/C (second compound 0.000949 µM, first compound 0.00949 µM) was 98.1%. It also gave a viability, T/C (second compound 0.000949 µM, first compound 0.03 µM) of 78.5%, a viability, T/C (second compound 0.000949 µM, first compound 0.0949 µM) of 83.8% and a viability, T/C (second compound 0.000949 µM, first compound 0.3 µM) of 84.9%. The viability, T/C (second compound 0.003 µM, first compound 0.000949 µM) was 101%, the viability, T/C (second compound 0.003 µM, first compound 0.003 µM) was 86.9% and the viability, T/C (second compound 0.003 µM, first compound 0.00949 µM) was 82.5%. For the same compound, the viability, T/C (second compound 0.003 µM, first compound 0.03 µM) was 86.8%, the viability, T/C (second compound 0.003 µM, first compound 0.0949 µM) was 85.3% and the viability, T/C (second compound 0.003 µM, first compound 0.3 µM) was 77.1%. The viability, T/C (second compound 0.00949 µM, first compound 0.000949 µM) was 84.2%, the viability, T/C (second compound 0.00949 µM, first compound 0.003 µM) was 73.3% and the viability, T/C (second compound 0.00949 µM, first compound 0.00949 µM) was 75.8%. It also gave a viability, T/C (second compound 0.00949 µM, first compound 0.03 µM) of 72.5%, a viability, T/C (second compound 0.00949 µM, first compound 0.0949 µM) of 74.6% and a viability, T/C (second compound 0.00949 µM, first compound 0.3 µM) of 68.9%. It also gave a viability, T/C (second compound 0.03 µM, first compound 0.000949 µM) of 77.4%, a viability, T/C (second compound 0.03 µM, first compound 0.003 µM) of 70% and a viability, T/C (second compound 0.03 µM, first compound 0.00949 µM) of 64.5%. It also gave a viability, T/C (second compound 0.03 µM, first compound 0.03 µM) of 67.9%, a viability, T/C (second compound 0.03 µM, first compound 0.0949 µM) of 71.6% and a viability, T/C (second compound 0.03 µM, first compound 0.3 µM) of 58.2%. For the same compound, the viability, T/C (second compound 0.0949 µM, first compound 0.000949 µM) was 55.5%, the viability, T/C (second compound 0.0949 µM, first compound 0.003 µM) was 47.1% and the viability, T/C (second compound 0.0949 µM, first compound 0.00949 µM) was 47.9%. For the same compound, the viability, T/C (second compound 0.0949 µM, first compound 0.03 µM) was 44.1%, the viability, T/C (second compound 0.0949 µM, first compound 0.0949 µM) was 48.8% and the viability, T/C (second compound 0.0949 µM, first compound 0.3 µM) was 46.1%. It also gave a viability, T/C (second compound 0.3 µM, first compound 0.000949 µM) of 33%, a viability, T/C (second compound 0.3 µM, first compound 0.003 µM) of 34.5% and a viability, T/C (second compound 0.3 µM, first compound 0.00949 µM) of 33.1%. The viability, T/C (second compound 0.3 µM, first compound 0.03 µM) was 35.9%, the viability, T/C (second compound 0.3 µM, first compound 0.0949 µM) was 41.5% and the viability, T/C (second compound 0.3 µM, first compound 0.3 µM) was 37.4%.
CC(C)n1nc(-c2ccc3oc(N)nc3c2)c2c(N)ncnc21 was tested, and the viability, T/C (compound 0.000316 µM) was 104% and 82.3% and 101% (2×), the viability, T/C (compound 0.00316 µM) was 86.8% and 105% (2×) and 98.4% and the viability, T/C (compound 0.01 µM) was 83% [middle of 4 runs]. For the same compound, the viability, T/C (compound 0.0316 µM) was 59.4% [middle of 4 runs] and the viability, T/C (compound 0.1 µM) was 40% (2×) and 49.2% and 51.2%.
CC(Nc1ccc2c(c1)OCCn1cc(N3C(=O)OCC3C(F)F)nc1-2)C(N)=O (stereo not given) + CCn1c(-c2cc(N3CCN(C)CC3)cnc2C(C)OC)c2c3cc(ccc31)-c1csc(n1)CC(NC(=O)C1CC1C)C(=O)N1CCCC(N1)C(=O)OCC(C)(C)C2 showed an IC50 [1] greater than 10000 nM, an IC50 [2] of 3450 nM and an IC50 [3] of 854 nM. The IC50 [4] was 98.5 nM, the IC50 [5] was less than 31.6 nM and the IC50 [6] was less than 31.6 nM. For the same compound, the viability, T/C (second compound 0.000949 µM, first compound 0.0316 µM) was 89.5%, the viability, T/C (second compound 0.000949 µM, first compound 0.1 µM) was 82.3% and the viability, T/C (second compound 0.000949 µM, first compound 0.316 µM) was 71.9%. For the same compound, the viability, T/C (second compound 0.000949 µM, first compound 1 µM) was 66.6%, the viability, T/C (second compound 0.000949 µM, first compound 3.16 µM) was 59.6% and the viability, T/C (second compound 0.000949 µM, first compound 10 µM) was 49.6%. It also gave a viability, T/C (second compound 0.003 µM, first compound 0.0316 µM) of 82.4%, a viability, T/C (second compound 0.003 µM, first compound 0.1 µM) of 79.2% and a viability, T/C (second compound 0.003 µM, first compound 0.316 µM) of 63.4%. The viability, T/C (second compound 0.003 µM, first compound 1 µM) was 62.6%, the viability, T/C (second compound 0.003 µM, first compound 3.16 µM) was 51.6% and the viability, T/C (second compound 0.003 µM, first compound 10 µM) was 40.2%. The viability, T/C (second compound 0.00949 µM, first compound 0.0316 µM) was 79.3%, the viability, T/C (second compound 0.00949 µM, first compound 0.1 µM) was 75% and the viability, T/C (second compound 0.00949 µM, first compound 0.316 µM) was 48.5%. The viability, T/C (second compound 0.00949 µM, first compound 1 µM) was 52.4%, the viability, T/C (second compound 0.00949 µM, first compound 3.16 µM) was 43.8% and the viability, T/C (second compound 0.00949 µM, first compound 10 µM) was 31.9%. The viability, T/C (second compound 0.03 µM, first compound 0.0316 µM) was 55.8%, the viability, T/C (second compound 0.03 µM, first compound 0.1 µM) was 48.4% and the viability, T/C (second compound 0.03 µM, first compound 0.316 µM) was 42%. The viability, T/C (second compound 0.03 µM, first compound 1 µM) was 42.7%, the viability, T/C (second compound 0.03 µM, first compound 3.16 µM) was 34.7% and the viability, T/C (second compound 0.03 µM, first compound 10 µM) was 25.7%. For the same compound, the viability, T/C (second compound 0.0949 µM, first compound 0.0316 µM) was 42.3%, the viability, T/C (second compound 0.0949 µM, first compound 0.1 µM) was 38% and the viability, T/C (second compound 0.0949 µM, first compound 0.316 µM) was 31.6%. It also gave a viability, T/C (second compound 0.0949 µM, first compound 1 µM) of 27.9%, a viability, T/C (second compound 0.0949 µM, first compound 3.16 µM) of 22.7% and a viability, T/C (second compound 0.0949 µM, first compound 10 µM) of 16.3%. For the same compound, the viability, T/C (second compound 0.3 µM, first compound 0.0316 µM) was 28.2%, the viability, T/C (second compound 0.3 µM, first compound 0.1 µM) was 26.2% and the viability, T/C (second compound 0.3 µM, first compound 0.316 µM) was 22.9%. For the same compound, the viability, T/C (second compound 0.3 µM, first compound 1 µM) was 21%, the viability, T/C (second compound 0.3 µM, first compound 3.16 µM) was 18.6% and the viability, T/C (second compound 0.3 µM, first compound 10 µM) was 14.2%.
With CC(C)NCC(C(=O)N1CCN(c2ncnc3c2C(C)CC3O)CC1)c1ccc(Cl)cc1 (stereo not given) the viability, T/C (compound 0.1 µM) was 108% [middle of 4 runs], the viability, T/C (compound 0.316 µM) was 119% and 102% (3×) and the viability, T/C (compound 1 µM) was 100% [middle of 4 runs]. The viability, T/C (compound 3.16 µM) was 100% [middle of 4 runs], the viability, T/C (compound 10 µM) was 103% [middle of 4 runs] and the IC50 (curve of compound) was greater than 10000 nM.
